From ChEMBL document CHEMBL4393691, “Design, synthesis and antitumor evaluation of novel celastrol derivatives” (Eur J Med Chem, 2019)
Activity calls are given as the source filed them. The rule behind the calls is not given here.

Tests used:
MCF7 [1] = assay: Antiproliferative activity against human MCF7 cells assessed as reduction in cell viability at 1 uM incubated for 48 hrs by MTT assay relative to control; assay type: functional; conditions: MCF7, 48 h
MCF7 [2] = assay: cells; conditions: Homo sapiens, MCF7, 48 h
HepG2 = assay: Cytotoxicity against human HepG2 cells assessed as reduction in cell viability incubated for 48 hrs by MTT assay; assay type: functional, cell-based; conditions: HepG2, 48 h
A549 [3] = assay: cells; conditions: Homo sapiens, A549, 48 h
A549 [4] = assay: Induction of apoptosis in human A549 cells assessed as viable cells at 2 uM incubated for 24 hrs by AnnexinV-FITC/propidium iodide staining-based flow cytometric analysis (reference value: 88.1%); assay type: functional; conditions: A549, 24 h, read-out: Activity
A549 [5] = assay: Induction of apoptosis in human A549 cells assessed as late apoptotic cells at 2 uM incubated for 24 hrs by AnnexinV-FITC/propidium iodide staining-based flow cytometric analysis (reference value: 4.2%); assay type: functional
A549 [6] = assay: Inhibition of Hsp90-Cdc37 interaction in human A549 cells assessed as decrease in Cdc37 protein level at 5 uM incubated for 6 hrs by immunoprecipitation assay; assay type: cell-based
A549 [7] = assay: Induction of apoptosis in human A549 cells assessed as necrotic cells at 2 uM incubated for 24 hrs by AnnexinV-FITC/propidium iodide staining-based flow cytometric analysis (reference value: 3.6%); assay type: functional
A549 [8] = assay: Induction of apoptosis in human A549 cells assessed as early apoptotic cells at 2 uM incubated for 24 hrs by AnnexinV-FITC/propidium iodide staining-based flow cytometric analysis (reference value: 4.1%); assay type: functional

| Compound | inhibition at 1 µM (MCF7 [1]) | also measured |
| --- | --- | --- |
| COC(=O)/C(C#N)=C/c1ccc(OCCCOC(=O)[C@]2(C)CC[C@]3(C)CC[C@]4(C)C5=CC=C6C(=CC(=O)C(O)=C6C)[C@]5(C)CC[C@@]4(C)[C@@H]3C2)cc1C | 19.8% | – |
| COC(=O)/C(C#N)=C/c1ccc(OCCCOC(=O)[C@]2(C)CC[C@]3(C)CC[C@]4(C)C5=CC=C6C(=CC(=O)C(O)=C6C)[C@]5(C)CC[C@@]4(C)[C@@H]3C2)cc1F | 8.36% | – |
| COC(=O)/C(C#N)=C/c1ccc(OCCCOC(=O)[C@]2(C)CC[C@]3(C)CC[C@]4(C)C5=CC=C6C(=CC(=O)C(O)=C6C)[C@]5(C)CC[C@@]4(C)[C@@H]3C2)cc1 | 22.1% | – |
| COC(=O)/C(C#N)=C/c1ccc(OCCOC(=O)[C@]2(C)CC[C@]3(C)CC[C@]4(C)C5=CC=C6C(=CC(=O)C(O)=C6C)[C@]5(C)CC[C@@]4(C)[C@@H]3C2)c(OC)c1 | 59.9% | – |
| COC(=O)/C=C\c1ccc(OC)c(OCCCCOC(=O)[C@]2(C)CC[C@]3(C)CC[C@]4(C)C5=CC=C6C(=CC(=O)C(O)=C6C)[C@]5(C)CC[C@@]4(C)[C@@H]3C2)c1 | 40.1% | – |
| COC(=O)/C=C/c1ccc(OCCOC(=O)[C@]2(C)CC[C@]3(C)CC[C@]4(C)C5=CC=C6C(=CC(=O)C(O)=C6C)[C@]5(C)CC[C@@]4(C)[C@@H]3C2)c(OC)c1 | 27.7% | – |
| COC(=O)/C(C#N)=C\c1ccc(OC)c(OC/C=C/COC(=O)[C@]2(C)CC[C@]3(C)CC[C@]4(C)C5=CC=C6C(=CC(=O)C(O)=C6C)[C@]5(C)CC[C@@]4(C)[C@@H]3C2)c1 | 45.6% | – |
| COC(=O)[C@]12CCC(C)(C)C[C@H]1[C@H]1C(=O)C=C3[C@@]4(C)C=C(C#N)C(=O)C(C)(C)[C@@H]4CC[C@@]3(C)[C@]1(C)CC2 [BARDOXOLONE METHYL] | – | IC50 (MCF7 [2]): 350 nM; IC50 (HepG2): 260 nM; IC50 (A549 [3]): 360 nM |
| COC(=O)/C(C#N)=C/c1ccc(OCCCOC(=O)[C@]2(C)CC[C@]3(C)CC[C@]4(C)C5=CC=C6C(=CC(=O)C(O)=C6C)[C@]5(C)CC[C@@]4(C)[C@@H]3C2)c(OC)c1 | 66.5% | IC50 (MCF7 [2]): 650 nM; IC50 (HepG2): 750 nM; IC50 (A549 [3]): 660 nM |
| COC(=O)/C(C#N)=C\c1ccc(OC)c(OCCCCOC(=O)[C@]2(C)CC[C@]3(C)CC[C@]4(C)C5=CC=C6C(=CC(=O)C(O)=C6C)[C@]5(C)CC[C@@]4(C)[C@@H]3C2)c1 | 27.4% | – |
| COC(=O)/C(C#N)=C\c1ccc(OC)c(OCCCOC(=O)[C@]2(C)CC[C@]3(C)CC[C@]4(C)C5=CC=C6C(=CC(=O)C(O)=C6C)[C@]5(C)CC[C@@]4(C)[C@@H]3C2)c1 | 65.9% | IC50 (MCF7 [2]): 640 nM; IC50 (HepG2): 710 nM; IC50 (A549 [3]): 780 nM |
| COC(=O)/C=C/c1ccc(OCCCOC(=O)[C@]2(C)CC[C@]3(C)CC[C@]4(C)C5=CC=C6C(=CC(=O)C(O)=C6C)[C@]5(C)CC[C@@]4(C)[C@@H]3C2)cc1 | 50.5% | – |
| COC(=O)/C=C/c1cc(OC)c(OCCCCOC(=O)[C@]2(C)CC[C@]3(C)CC[C@]4(C)C5=CC=C6C(=CC(=O)C(O)=C6C)[C@]5(C)CC[C@@]4(C)[C@@H]3C2)c(OC)c1 | 7.52% | – |
| COC(=O)/C=C/c1ccc(OCCCCOC(=O)[C@]2(C)CC[C@]3(C)CC[C@]4(C)C5=CC=C6C(=CC(=O)C(O)=C6C)[C@]5(C)CC[C@@]4(C)[C@@H]3C2)c(OC)c1 | 15.9% | – |
| COC(=O)/C=C/c1cc(OC)c(OCCOC(=O)[C@]2(C)CC[C@]3(C)CC[C@]4(C)C5=CC=C6C(=CC(=O)C(O)=C6C)[C@]5(C)CC[C@@]4(C)[C@@H]3C2)c(OC)c1 | 60.3% | IC50 (MCF7 [2]): 880 nM; IC50 (HepG2): 890 nM; IC50 (A549 [3]): 1070 nM |
| COC(=O)/C(C#N)=C/c1ccc(OCCCOC(=O)[C@]2(C)CC[C@]3(C)CC[C@]4(C)C5=CC=C6C(=CC(=O)C(O)=C6C)[C@]5(C)CC[C@@]4(C)[C@@H]3C2)c(C)c1 | 21.9% | – |
| COC(=O)/C=C/c1ccc(OC/C=C/COC(=O)[C@]2(C)CC[C@]3(C)CC[C@]4(C)C5=CC=C6C(=CC(=O)C(O)=C6C)[C@]5(C)CC[C@@]4(C)[C@@H]3C2)cc1 | 5.29% | – |

| Compound | inhibition at 1 µM (MCF7 [1]) | also measured |
| --- | --- | --- |
| COC(=O)/C(C#N)=C/c1ccc(OCCCCOC(=O)[C@]2(C)CC[C@]3(C)CC[C@]4(C)C5=CC=C6C(=CC(=O)C(O)=C6C)[C@]5(C)CC[C@@]4(C)[C@@H]3C2)c(OC)c1 | 13.8% | – |
| COC(=O)/C=C/c1ccc(OC/C=C/COC(=O)[C@]2(C)CC[C@]3(C)CC[C@]4(C)C5=CC=C6C(=CC(=O)C(O)=C6C)[C@]5(C)CC[C@@]4(C)[C@@H]3C2)c(OC)c1 | 32.5% | – |
| COC(=O)/C(C#N)=C/c1ccc(OCCCOC(=O)[C@]2(C)CC[C@]3(C)CC[C@]4(C)C5=CC=C6C(=CC(=O)C(O)=C6C)[C@]5(C)CC[C@@]4(C)[C@@H]3C2)cc1OC | 11% | – |
| COC(=O)/C=C/c1ccc(OCCOC(=O)[C@]2(C)CC[C@]3(C)CC[C@]4(C)C5=CC=C6C(=CC(=O)C(O)=C6C)[C@]5(C)CC[C@@]4(C)[C@@H]3C2)cc1 | 63.9% | IC50 (MCF7 [2]): 670 nM; IC50 (HepG2): 600 nM; IC50 (A549 [3]): 600 nM |
| COC(=O)/C=C/c1ccc(OCCCOC(=O)[C@]2(C)CC[C@]3(C)CC[C@]4(C)C5=CC=C6C(=CC(=O)C(O)=C6C)[C@]5(C)CC[C@@]4(C)[C@@H]3C2)c(OC)c1 | 78.5% | IC50 (MCF7 [2]): 450 nM; IC50 (HepG2): 530 nM; IC50 (A549 [3]): 560 nM |
| COC(=O)/C=C\c1ccc(OC)c(OC/C=C/COC(=O)[C@]2(C)CC[C@]3(C)CC[C@]4(C)C5=CC=C6C(=CC(=O)C(O)=C6C)[C@]5(C)CC[C@@]4(C)[C@@H]3C2)c1 | 49.2% | – |
| COC(=O)/C(C#N)=C\c1ccc(OC)c(OCCOC(=O)[C@]2(C)CC[C@]3(C)CC[C@]4(C)C5=CC=C6C(=CC(=O)C(O)=C6C)[C@]5(C)CC[C@@]4(C)[C@@H]3C2)c1 | 79.7% | IC50 (MCF7 [2]): 300 nM; IC50 (HepG2): 370 nM; IC50 (A549 [3]): 460 nM |
| COC(=O)/C=C/c1ccc(OCCCCOC(=O)[C@]2(C)CC[C@]3(C)CC[C@]4(C)C5=CC=C6C(=CC(=O)C(O)=C6C)[C@]5(C)CC[C@@]4(C)[C@@H]3C2)cc1 | 0.94% | – |
| COC(=O)/C=C\c1ccc(OC)c(OCCCOC(=O)[C@]2(C)CC[C@]3(C)CC[C@]4(C)C5=CC=C6C(=CC(=O)C(O)=C6C)[C@]5(C)CC[C@@]4(C)[C@@H]3C2)c1 | 67.4% | IC50 (MCF7 [2]): 670 nM; IC50 (HepG2): 650 nM; IC50 (A549 [3]): 700 nM |
| COC(=O)/C=C/c1cc(OC)c(OC/C=C/COC(=O)[C@]2(C)CC[C@]3(C)CC[C@]4(C)C5=CC=C6C(=CC(=O)C(O)=C6C)[C@]5(C)CC[C@@]4(C)[C@@H]3C2)c(OC)c1 | 18% | – |
| COC(=O)/C(C#N)=C/c1ccc(OC/C=C/COC(=O)[C@]2(C)CC[C@]3(C)CC[C@]4(C)C5=CC=C6C(=CC(=O)C(O)=C6C)[C@]5(C)CC[C@@]4(C)[C@@H]3C2)c(OC)c1 | 25.7% | – |
| CC1=C(O)C(=O)C=C2C1=CC=C1[C@@]2(C)CC[C@@]2(C)[C@@H]3C[C@](C)(C(=O)O)CC[C@]3(C)CC[C@]12C [CELASTROL] | 60.2% | viability at 2 µM (A549 [4]): 64.1%; IC50 (MCF7 [2]): 1060 nM; IC50 (HepG2): 1330 nM; Activity (A549 [5]): 16.1%; inhibition (A549 [6]): Active; Activity (A549 [7]): 4.8%; IC50 (A549 [3]): 1280 nM; Activity (A549 [8]): 14.9% |
| COC(=O)/C=C/c1cc(OC)c(OCCCOC(=O)[C@]2(C)CC[C@]3(C)CC[C@]4(C)C5=CC=C6C(=CC(=O)C(O)=C6C)[C@]5(C)CC[C@@]4(C)[C@@H]3C2)c(OC)c1 | 8.61% | – |
| COC(=O)/C(C#N)=C/c1ccc(OCCCOC(=O)[C@]2(C)CC[C@]3(C)CC[C@]4(C)C5=CC=C6C(=CC(=O)C(O)=C6C)[C@]5(C)CC[C@@]4(C)[C@@H]3C2)c(F)c1 | 18.8% | – |
| COC(=O)/C=C\c1cccc(OCCCOC(=O)[C@]2(C)CC[C@]3(C)CC[C@]4(C)C5=CC=C6C(=CC(=O)C(O)=C6C)[C@]5(C)CC[C@@]4(C)[C@@H]3C2)c1 | 33% | – |
| COC(=O)/C(C#N)=C\c1cccc(OCCCOC(=O)[C@]2(C)CC[C@]3(C)CC[C@]4(C)C5=CC=C6C(=CC(=O)C(O)=C6C)[C@]5(C)CC[C@@]4(C)[C@@H]3C2)c1 | 47% | – |
